Common to all, as to format: cell-based
Assay [1] has as its system PMN's (polymorphonuclear leukocytes). Kind of assay: Neutrophil oxidative burst. To be noted: Leukocyte, 40 min; 40 min incubation at rt; normalised to 5×10^−7 M PEP0005; read-out: Neutrophil oxidative burst Rel EC50 range. As to the method:
PMN's (polymorphonuclear leukocytes) are isolated and purified from fresh buffy coats by sequential sedimentation, density centrifugation and lysis of contaminating erythrocytes. In brief, buffy coats are incubated with 2% methocel for 30-45 min to differentially sediment red blood cells. The leukocyte-rich supernatant is transferred to lymphoprep tubes to remove mononuclear cells by density centrifugation (400×g, 30 min). The pellet is resuspended and any remaining erythrocytes lysed using 0.2% NaCl for 30 sec before restoring isotonicity by the addition of 1.2% NaCl. This step is repeated until the cell pellet appears relatively free of red blood cells. Cells are resuspended in DPBS (Dulbecco's Phosphate Buffered Saline) (w.o. Ca^2+, Mg^2+) and the concentration adjusted to 1.4×10^6 cells/ml in HBSS (Hanks Balanced Salt solution) (w Ca^2+, Mg^2+) containing 0.1% BSA (Bovine Serum Albumin) and 5 mM glucose just prior to assay initiation. Titrated reference and test compounds are pre-mixed with HE (Hydroethidine) (10 μM final assay concentration) before addition to 96-well plates containing 2.5×10^5 cells. Following 40 min incubation at rt, changes in the respiratory burst is estimated by measuring fluorescence at 579 nm (excitation: 485 nm) using an Envision plate reader.
Test compound titration curves are fitted to a four-parameter sigmoidal curve after normalizing the effect of the test compound to the effect of the positive control (5×10^−7 M PEP0005). Rel EC50 denotes the concentration of test compound producing an effect that is midway between the fitted top and bottom. Abs EC50 is the concentration of test compound that provokes a response corresponding to 50% of the maximal effect associated with the positive control (5×10^−7 M PEP0005).

The subject of assay [2] is Primary human epidermal keratinocytes, HeKa. Kind of assay: HeKa cytokine release (IL-8). To be noted: 6 h at 37° C., normalised to 1.5×10^−7 M PEP0005, read-out: HeKa cytokine release (IL-8) Rel EC50 range. On the procedure:
Primary human epidermal keratinocytes, HeKa, are seeded (10.000 cells/well) in 96-well plates the day before the assay. Test compounds are diluted in DMSO (dimethyl sulfoxide) and further diluted in assay medium and pipetted into wells of 96 well-plates containing HeKa cells. The plates are incubated for 6 h at 37° C. in humidified air with 5% CO2. Plates are centrifuged briefly to spin down cells at 4° C., the supernatant is removed and analysed by Meso Scale Discovery (MSD) 4-spot cytokine assay (Pro-inflammatory II Ultra Sensitive kit, MSD, MD, USA). The MSD assay employs a sandwich immunoassay format where capture antibodies are coated in a patterned array on the bottom of the wells of a 4-Spot-Multi-MSD plate. Standard samples are incubated in the MULTI-SPOT plates as well, and the cytokine (IL-8) binds to its corresponding capture antibody spot. The cytokine level is quantitated on a SECTOR™ Imager using a cytokine-specific Detection Antibody labelled with MSD SULFO-TAG™ reagent.
Test compound titration curves are fitted to a four-parameter sigmoidal curve after normalizing the effect of the test compound to the effect of the positive control (1.5×10^−7 M PEP0005). Rel EC50 denotes the concentration of test compound producing an effect that is midway between the fitted top and bottom.

The subject of the next assay is HeLa cells. The assay can be described thus: Necrosis assay. The conditions noted are these: Homo sapiens, 0.5 h, 30 min at 37° C., PrestoBlue, normalised to 4 10^−4 M PEP0005/ingenol mebutate, read-out: HeLa necrosis EC50 range. As to the method:
HeLa cells (ATCC CCL-002) were grown in minimal essential medium (Invitrogen catalog no. 42360) containing 10% fetal bovine serum, 100 IU/ml penicillin and 100 μg/ml streptomycin. 4,000-6,000 cells were seeded into 96-well black ViewPlates-plates, clear bottom, (Perkin Elmer) in 100 μl medium and incubated overnight. Compounds were dissolved and pre-diluted in DMSO in 96-well polypropylene plates (Greiner) in a concentration range of 15 μM to 600 μM. At the time of the experiment cell plates were placed on heating blocks at 37° C., medium was removed and 40 μl fresh, pre-warmed medium was added per well. Cells were incubated for 15 min before addition of compounds. In parallel, 3 μl of compounds were diluted with 197 μl growth medium on a Tecan freedom-EVO pipetting station using 250 μl/s pipetting speed, in order to ensure effective mixing of the highly concentrated compound solutions with the aqueous phase.
These pre-dilution plates were then equilibrated on heating blocks at 37° C. for 10 min. 80 μl pre-diluted compound were transferred manually to the corresponding wells containing HeLa cells yielding compound concentrations of 10 μM to 400 μM. Control conditions were 1% DMSO in growth medium (100% viability) and 400 μM ingenol mebutate in growth medium (0% viability). Plates were incubated on the heating blocks at 37° C. for 30 min. At the end of the incubation 10 μl PrestoBlue reagent (Invitrogen) were added to each well, plates were sealed with black seal, followed by incubation at 37° C. for 10 min with gentle shaking (150 rpm). Subsequently, plates were placed at room temperature for 20-30 min. Plates were read immediately after on an Envision Fluorescence reader (Perkin Elmer) with excitation at 535 nm and emission at 630 nm. Test compound titration curves were fitted to a four-parameter sigmoidal curve after normalizing the effect of the test compound to the effect of the positive control (4 10^−4 M PEP0005/ingenol mebutate). Abs EC50 denotes the concentration of test compound producing 50% effect.

By EC50 is commonly meant the midpoint of the concentration-response curve. In the case of `CC1=C[C@]23C(=O)[C@@H](C=C(CO)[C@@H](O)[C@]2(O)[C@H]1Oc1nccc2ccsc12)[C@H]1[C@@H](C[C@H]3C)C1(C)C` [Compound 123, 3-O-(Thieno[2,3-c]pyridine-7-yl)-ingenol], the figures for the EC50 (in assay [1]; in assay [2]; in the assay on HeLa cells) were 20 to 100 nM, less than 20 nM and no less than 350000 nM, respectively.
The matching figures for `CC1=C[C@]23C(=O)[C@@H](C=C(CO)[C@@H](O)[C@]2(O)[C@H]1Oc1cccc(C(F)(F)F)n1)[C@H]1[C@@H](C[C@H]3C)C1(C)C` [Compound 117, 3-O-(6-(Trifluoromethyl)-2-pyridyl)-ingenol]: no less than 100 nM, no less than 100 nM and no less than 350000 nM.
The matching figures for `C=CCc1c(Cl)ncnc1O[C@H]1C(C)=C[C@]23C(=O)[C@@H](C=C(CO)[C@@H](O)[C@]12O)[C@H]1[C@@H](C[C@H]3C)C1(C)C` [Compound 104, 3-O-(5-Allyl-6-chloro-pyrimidin-4-yl)-ingenol]: 20 to 100 nM, less than 20 nM and less than 150000 nM.
Consider `CC1=C[C@]23C(=O)[C@@H](C=C(CO)[C@@H](O)[C@]2(O)[C@H]1Oc1nccc(C(F)(F)F)n1)[C@H]1[C@@H](C[C@H]3C)C1(C)C` [Compound 114, 3-O-(4-(Trifluoromethyl)-pyrimidin-2-yl)-ingenol], for which the EC50 in assay [1] is no less than 100 nM; in assay [2], no less than 100 nM; in the assay with HeLa cells, no less than 350000 nM.
`CC1=C[C@]23C(=O)[C@@H](C=C(CO)[C@@H](O)[C@]2(O)[C@H]1Oc1cc(C(F)(F)F)ccn1)[C@H]1[C@@H](C[C@H]3C)C1(C)C` [Compound 113, 3-O-(4-(Trifluoromethyl)-2-pyridyl)-ingenol]: the EC50 in assay [1] is 20 to 100 nM; in assay [2], 20 to 100 nM; with HeLa cells, 150000 to 350000 nM.
On to `CC1=C[C@]23C(=O)[C@@H](C=C(CO)[C@@H](O)[C@]2(O)[C@H]1Oc1ncccc1C#N)[C@H]1[C@@H](C[C@H]3C)C1(C)C` [Compound 116, 3-O-(3-Cyano-2-pyridyl)-ingenol], for which the figures for the EC50 (in assay [1]; in assay [2]; with HeLa cells) were 20 to 100 nM, no less than 100 nM and no less than 350000 nM, respectively.
Turning to `COc1ccc2c(O[C@H]3C(C)=C[C@]45C(=O)[C@@H](C=C(CO)[C@@H](O)[C@]34O)[C@H]3[C@@H](C[C@H]5C)C3(C)C)noc2c1` [Compound 132, 3-O-(6-Methoxy-1,2-benzoxazol-3-yl)-ingenol], the EC50 in assay [1] is less than 20 nM; in assay [2], less than 20 nM; with HeLa cells, no less than 350000 nM.
`COc1ccc2onc(O[C@H]3C(C)=C[C@]45C(=O)[C@@H](C=C(CO)[C@@H](O)[C@]34O)[C@H]3[C@@H](C[C@H]5C)C3(C)C)c2c1` [Compound 130, 3-O-(5-Methoxy-1,2-benzoxazol-3-yl)-ingenol]: the EC50 in assay [1] was less than 20 nM; in assay [2], less than 20 nM; in the assay with HeLa cells, 150000 to 350000 nM.
As to `CC1=C[C@]23C(=O)[C@@H](C=C(CO)[C@@H](O)[C@]2(O)[C@H]1Oc1ncccc1C=O)[C@H]1[C@@H](C[C@H]3C)C1(C)C` [Compound 105, 3-O-(3-Formyl-2-pyridyl)-ingenol], the EC50 is no less than 100 nM in assay [1], no less than 100 nM in assay [2] and no less than 350000 nM with HeLa cells.
Consider `CC1=C[C@]23C(=O)[C@@H](C=C(CO)[C@@H](O)[C@]2(O)[C@H]1Oc1nccn1C1CCCC1)[C@H]1[C@@H](C[C@H]3C)C1(C)C` [Compound 120, 3-O-(1-Cyclopentylimidazol-2-yl)-ingenol], for which the values for the EC50 (in assay [1]; in assay [2]; in the assay on HeLa cells) were less than 20 nM, less than 20 nM and 150000 to 350000 nM, respectively.
For the compound `CC1=C[C@]23C(=O)[C@@H](C=C(CO)[C@@H](O)[C@]2(O)[C@H]1Oc1cc(Br)ccn1)[C@H]1[C@@H](C[C@H]3C)C1(C)C` [Compound 111, 3-O-(4-Bromo-2-pyridyl)-ingenol], the EC50 in assay [1] lay within 20 to 100 nM; in assay [2], 20 to 100 nM; in the assay on HeLa cells, 150000 to 350000 nM.
In the case of `CC1=C[C@]23C(=O)[C@@H](C=C(CO)[C@@H](O)[C@]2(O)[C@H]1Oc1ccccn1)[C@H]1[C@@H](C[C@H]3C)C1(C)C` [Compound 106, 3-O-(2-Pyridyl)-ingenol], the results for the EC50 (in assay [1]; in assay [2]; in the assay on HeLa cells) were no less than 100 nM, 20 to 100 nM and no less than 350000 nM, respectively.
For the compound `CC1=C[C@]23C(=O)[C@@H](C=C(CO)[C@@H](O)[C@]2(O)[C@H]1Oc1ncnc(Cl)c1C)[C@H]1[C@@H](C[C@H]3C)C1(C)C` [Compound 101, 3-O-(6-Chloro-5-methyl-pyrimidin-4-yl)-ingenol], the results for the EC50 (in assay [1]; in assay [2]; with HeLa cells) were 20 to 100 nM, less than 20 nM and less than 150000 nM, respectively.
The matching figures for `CC1=C[C@]23C(=O)[C@@H](C=C(CO)[C@@H](O)[C@]2(O)[C@H]1Oc1ncccc1Cl)[C@H]1[C@@H](C[C@H]3C)C1(C)C` [Compound 115, 3-O-(3-Chloro-2-pyridyl)-ingenol]: 20 to 100 nM, 20 to 100 nM and 150000 to 350000 nM.
In the case of `CC1=C[C@]23C(=O)[C@@H](C=C(CO)[C@@H](O)[C@]2(O)[C@H]1Oc1nccc2sccc12)[C@H]1[C@@H](C[C@H]3C)C1(C)C` [Compound 127, 3-O-(Thieno[3,2-c]pyridine-4-yl)-ingenol], the EC50 is 20 to 100 nM in assay [1], 20 to 100 nM in assay [2] and 150000 to 350000 nM in the assay with HeLa cells.
